Laboratory results from patent US6669925B1, “Sigma-2 receptors as biomarkers of tumor cell proliferation” (Wake Forest University, priority 2000, dated 2003).
Read-outs that look alike come from different tables or passages of the source.

Tests used:
σ2 receptors = molecular target: T1, σ2 receptors (Rattus norvegicus, UniProt Q5U3Y7); assay: In vitro binding to σ2 receptors: inhibition of [3H]DTG binding to rat liver homogenates
T1 construct: from tissue; host or cells: rat liver homogenate (per the earlier reading's assay description)
T1 sequence (Q5U3Y7 1-176): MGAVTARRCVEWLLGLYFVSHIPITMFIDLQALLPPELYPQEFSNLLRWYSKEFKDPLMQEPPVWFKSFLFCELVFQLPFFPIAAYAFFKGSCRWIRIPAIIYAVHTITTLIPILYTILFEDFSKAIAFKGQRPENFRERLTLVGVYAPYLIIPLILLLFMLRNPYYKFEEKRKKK
From the text: (§1) The ability to bind to sigma-1 or sigma-2 can be measured using methods currently known to those of skill in the art or using those techniques described in U.S. application Ser. No. 60/013717, filed Mar. 30, 1996; in U.S. application Ser. No. 09/142935, filed Sep. 17, 1998; or in U.S. application Ser. No. 09/528398, filed Mar. 20, 2000.

σ1 receptors = molecular target: T2, σ1 receptors (Cavia porcellus, UniProt Q60492); assay: In vitro binding to σ1 receptors: inhibition of [3H](+)-pentazocine binding to guinea pig brain homogenates
T2 construct: from tissue; host or cells: guinea pig brain homogenate (per the earlier reading's assay description)
From the text: as §1

[1] = Table II, footnote a not given, read-out: σ1 (binding to σ1 receptors)
[2] = Table II, footnote b not given, read-out: σ2 (binding to σ2 receptors)
[3] = Table I, guinea pig brain homogenates (n = 3-5), read-out: σ1: Ki for inhibition of the binding of [3H](+)-pentazocine

T2 sequence (Q60492 whole entry): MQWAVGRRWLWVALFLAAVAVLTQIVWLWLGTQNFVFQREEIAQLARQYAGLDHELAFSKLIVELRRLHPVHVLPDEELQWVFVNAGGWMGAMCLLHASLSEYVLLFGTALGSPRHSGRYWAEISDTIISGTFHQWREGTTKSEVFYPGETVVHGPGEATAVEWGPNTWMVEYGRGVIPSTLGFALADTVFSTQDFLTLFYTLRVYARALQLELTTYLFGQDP

COc1ccc(C)cc1NC(=O)OC1CC2CCCC(C1)N2CCCc1ccc(N)cc1 (stereo not shown)
Ki (σ2 receptors): 10.5 nM

COc1ccc(C)cc1NC(=O)OC1CC2CCCC(C1)N2CCCCCc1ccccc1 (stereo not shown) [Compound 6d]
Ki (σ1 receptors): 17.3 ± 1.2 nM
Ki (σ2 receptors): 1.82 ± 0.19 nM

COc1ccc(C)cc1NC(=O)OC1CC2CCCC(C1)N2CCCCc1ccccc1 (stereo not shown) [Compound 6c]
Ki (σ1 receptors): 65.5 ± 4.3 nM
Ki (σ2 receptors): 2.92 ± 0.21 nM

COc1ccc(C)cc1NC(=O)OC1CC2CCCC(C1)N2CCc1ccccc1 (stereo not shown) [Compound 6a]
Ki (σ1 receptors): 59.9 ± 4.6 nM
Ki (σ2 receptors): 1.2 ± 0.1 nM

COc1ccc(C)cc1NC(=O)OC1CC2CCCC(C1)N2CCc1ccc(N)cc1 (stereo not shown) [Compound 7c]
Ki (σ1 receptors; [1]): > 1000 nM
Ki (σ2 receptors): 7.78 ± 0.61 nM

COc1ccc(C)cc1NC(=O)OC1CC2CCCC(C1)N2CCc1ccc(NC(=O)OC(C)(C)C)cc1 (stereo not shown) [Compound 7b]
Ki (σ1 receptors; [1]): > 1000 nM
Ki (σ2 receptors; [2]): > 1000 nM

COc1ccc(C)cc1NC(=O)OC1CC2CCCC(C1)N2CCCCCCCc1ccccc1 (stereo not shown) [Compound 6f]
Ki (σ1 receptors; [3]): 230 ± 28.6 nM
Ki (σ2 receptors): 7.6 ± 0.18 nM

COc1ccc(C)cc1NC(=O)OC1CC2CCCC(C1)N2CCCCCCc1ccccc1 (stereo not shown) [Compound 6e]
Ki (σ1 receptors; [3]): 214 ± 23.5 nM
Ki (σ2 receptors): 7.61 ± 0.41 nM

COc1ccc(C)cc1NC(=O)OC1CC2CCCC(C1)N2CCCc1ccccc1 (stereo not shown) [Compound 6b]
Ki (σ1 receptors): 72.9 ± 1.6 nM
Ki (σ2 receptors): 1.97 ± 0.12 nM

COc1ccc(C)cc1NC(=O)OC1CC2CCCC(C1)N2C/C=C/c1ccc(N)cc1 (stereo not shown)
Ki (σ2 receptors): 3.6 nM

COc1ccc(C)cc1NC(=O)OC1CC2CCCC(C1)N2Cc1ccccc1 (stereo not shown) [—, reference compound]
Ki (σ1 receptors): 92.5 ± 11 nM
Ki (σ2 receptors): 3.06 ± 0.83 nM

COc1ccc(C)cc1NC(=O)OC1CC2CCCC(C1)N2CCc1ccc(I)cc1 (stereo not shown) [Compound 7a]
Ki (σ1 receptors; [1]): 175 ± 6.71 nM
Ki (σ2 receptors; [2]): 141 ± 8.36 nM
